Measured values published in patent publication US8084484B2, “Vanilloid receptor ligands, pharmaceutical compositions containing them, process for making them, and use thereof for treating pain and other conditions” (Gruenenthal GmbH, priority 2007, dated 2011).

What was measured:
[1] = target: T1, vanilloid receptor 1 (VR1/TRPV1) of the rat species (Rattus norvegicus, UniProt O35433); assay: FLIPR Ca2+ influx assay on rat dorsal root ganglia cells, capsaicin stimulus (Pharmacological method I); type: cell-based; conditions: Ki by Cheng-Prusoff
T1 construct: The spinal column is removed from decapitated rats; endogenous in cells; host or cells: primary cells dissociated from rat dorsal root ganglia, cultured 2-3 days with NGF
From the text: I. Functional Investigation on Vanilloid Receptor 1 (VR1/TRPV1 Receptor)
(§1) The agonistic or antagonistic action of the substances to be investigated on the vanilloid receptor 1 (VR1/TRPV1) of the rat species may be determined with the following assay. According to this assay, the influx of Ca^2+ through the receptor channel is quantified with the assistance of a Ca^2+-sensitive dye (type Fluo-4, Molecular Probes Europe BV, Leiden, Netherlands) in a Fluorescent Imaging Plate Reader (FLIPR, Molecular Devices, Sunnyvale, USA).
Complete medium: 50 mL HAMS F12 Nutrient Mixture (Gibco Invitrogen GmbH, Karlsruhe, Germany) with 10 vol. % FCS (foetal calf serum, Gibco Invitrogen GmbH, Karlsruhe, Germany, heat-inactivated); 2 mM L-glutamine (Sigma, Munich, Germany); 1 wt. % AA solution (antibiotic/antimycotic solution, PAA, Pasching, Austria) and 25 ng/ml NGF medium (2.5 S, Gibco Invitrogen GmbH, Karlsruhe, Germany)
Cell culture plate: poly-D-lysine-coated, black 96-hole plates with clear base (96 well black/clear plate, BD Biosciences, Heidelberg, Germany) are additionally coated with laminin (Gibco Invitrogen GmbH, Karlsruhe, Germany), by diluting laminin to a concentration of 100 μg/mL with PBS (Ca—Mg-free PBS, Gibco Invitrogen GmbH, Karlsruhe, Germany). Aliquots with a concentration of 100 μg/mL of laminin are taken and stored at −20° C. The aliquots are diluted with PBS in the ratio of 1:10 to 10 μg/mL of laminin and 50 μL of the solution is pipetted into each well of the cell culture plate. The cell culture plates are incubated for at least two hours at 37° C., the supernatant solution is aspirated and the wells are each washed twice with PBS. […]
The spinal column is removed from decapitated rats and this is placed directly in cold HBSS buffer (Hank's buffered saline solution, Gibco Invitrogen GmbH, Karlsruhe, Germany), i.e. located in an ice bath, combined with 1 vol. % (percent by volume) of an AA solution (antibiotic/antimycotic solution, PAA, Pasching, Austria). […] The resultant pellet is in each case redissolved in 250 μL of complete medium and the cell count is determined. […]

[2] = target: T2, vanilloid receptor (VR1), human VR1 gene (Homo sapiens, UniProt Q8NER1); assay: FLIPR Ca2+ influx assay on CHO K1 cells transfected with the VR1 gene, capsaicin stimulus (Pharmacological method II); type: cell-based; conditions: human, Ki by Cheng-Prusoff, ne = no effect, no response observed
T2 construct: expressed in transfected cells; host or cells: CHO K1 cells (ECACC), stably transfected
Protocol: In addition, compounds according to the invention of the general formulae I, Ia, Ib, Ic, and Id, may be preferred which in the FLIPR assay with CHO K1 cells, which have been transfected with the human VR1 gene, in a concentration of less than 2000 nM, preferably of less than 1000 nM, particularly preferably of less than 300 nM, very particularly preferably of less than 100 nM, still more preferably of less than 75 nM, further preferably of less than 50 nM and most preferably of less than 10 nM, bring about a 50 percent displacement of capsaicin, which is present in a concentration of 100 nM. In this FLIPR assay, the influx of Ca^2+ is quantified with the assistance of a Ca^2+-sensitive dye (type Fluo-4, Molecular Probes Europe BV, Leiden, Netherlands) in a Fluorescent Imaging Plate Reader (FLIPR, Molecular Devices, Sunnyvale, USA) as described below.
II. Functional Investigations on Vanilloid Receptor (VR1)
as §1, with “(VR1)” for “1 (VR1/TRPV1) of the rat species”, “may also” for “may”, “the” for “the receptor”
Chinese hamster ovary cells (CHO K1 cells, European Collection of Cell Cultures (ECACC), Great Britain) are stably transfected with the VR1 gene. For functional investigations, these cells are plated out onto poly-D-lysine-coated, black 96-hole plates with a clear base (BD Biosciences, Heidelberg, Germany) at a density of 25,000 cells/hole. The cells are incubated overnight at 37° C. and 5% CO2 in a culture medium (Ham's Nutrient Mixture F12, 10 vol. % FCS (foetal calf serum), 18 μg/mL L-proline). On the following day, the cells are incubated with Fluo-4 (Fluo-4 2 μM, Pluronic F127 0.01 vol. %, Molecular Probes in HBSS (Hank's buffered saline solution), Gibco Invitrogen GmbH, Karlsruhe, Germany) for 30 minutes at 37° C. The plates are then washed 3 times with HBSS buffer and, after a further 15 minutes' incubation at room temperature, used for Ca^2+ measurement in the FLIPR. Ca^2+-dependent fluorescence is here measured before and after the addition of the substances to be investigated (wavelength λex=488 nm, λem=540 nm).
Quantification proceeds by measuring the highest fluorescence intensity (FC, fluorescence counts) over time.
The FLIPR protocol consists of 2 additions of substance. The substances to be tested (10 μM) are firstly pipetted onto the cells and Ca^2+ influx is compared with the control (capsaicin 10 μM) (% activation relative to the Ca^2+ signal after addition of 10 μM of capsaicin). After 5 minutes' incubation, 100 nM of capsaicin are added and the influx of Ca^2+ is likewise determined.
The percentage inhibition in comparison with the maximum achievable inhibition with 10 μM capsaicin is calculated.
On the basis of the percentage displacement by different concentrations of the compounds to be tested of the general formula I, IC50 inhibition concentrations which bring about 50% displacement of capsaicin were calculated. Ki values for the test substances were obtained by conversion using the Cheng-Prusoff equation (Cheng, Prusoff; Biochem. Pharmacol. 22, 3099-3108, 1973).

[3] = target: VR1/TRPV1 receptor (Homo sapiens, UniProt Q8NER1); assay: Inhibition of human VR1/TRPV1 following pH-stimulus; type: cell-based; conditions: ne = no effect, no response observed
[4] = tested on: male mice (NMRI); assay: Formaldehyde test in mice; type: in vivo; conditions: 0.3 per os (dose unit not given), second phase
Protocol: III. b. Formaldehyde Test in Mice
The investigation for determining the antinociceptive action of the compounds according to the invention is performed using the formaldehyde test on male mice (NMRI, 20 to 30 g body weight, Iffa, Credo, Belgium).
In the formaldehyde test, according to D. Dubuisson et al., Pain 1977, 4, 161-174 a distinction is drawn between the first (early) phase (0 to 15 minutes after the formaldehyde injection) and the second (late) phase (15 to 60 minutes after the formaldehyde injection). […]
Then, the nociceptive behaviour of the animals is observed and recorded continuously for an investigation period of three minutes in the second (late) phase of the formaldehyde test (21 to 24 minutes after the formaldehyde injection). Quantification of the pain behaviour proceeds by summation of the seconds in which the animals licked and bit the relevant paw during the investigation period.
The comparison is made in each case with control animals, which, instead of compounds according to the invention, received vehicle (0.9% aqueous sodium chloride soln.) before administration of the formaldehyde. On the basis of the quantification of the pain behaviour, the substance effect in the formaldehyde test is determined in percent as a change compared with the corresponding control. […]

T2 sequence (Q8NER1 whole entry): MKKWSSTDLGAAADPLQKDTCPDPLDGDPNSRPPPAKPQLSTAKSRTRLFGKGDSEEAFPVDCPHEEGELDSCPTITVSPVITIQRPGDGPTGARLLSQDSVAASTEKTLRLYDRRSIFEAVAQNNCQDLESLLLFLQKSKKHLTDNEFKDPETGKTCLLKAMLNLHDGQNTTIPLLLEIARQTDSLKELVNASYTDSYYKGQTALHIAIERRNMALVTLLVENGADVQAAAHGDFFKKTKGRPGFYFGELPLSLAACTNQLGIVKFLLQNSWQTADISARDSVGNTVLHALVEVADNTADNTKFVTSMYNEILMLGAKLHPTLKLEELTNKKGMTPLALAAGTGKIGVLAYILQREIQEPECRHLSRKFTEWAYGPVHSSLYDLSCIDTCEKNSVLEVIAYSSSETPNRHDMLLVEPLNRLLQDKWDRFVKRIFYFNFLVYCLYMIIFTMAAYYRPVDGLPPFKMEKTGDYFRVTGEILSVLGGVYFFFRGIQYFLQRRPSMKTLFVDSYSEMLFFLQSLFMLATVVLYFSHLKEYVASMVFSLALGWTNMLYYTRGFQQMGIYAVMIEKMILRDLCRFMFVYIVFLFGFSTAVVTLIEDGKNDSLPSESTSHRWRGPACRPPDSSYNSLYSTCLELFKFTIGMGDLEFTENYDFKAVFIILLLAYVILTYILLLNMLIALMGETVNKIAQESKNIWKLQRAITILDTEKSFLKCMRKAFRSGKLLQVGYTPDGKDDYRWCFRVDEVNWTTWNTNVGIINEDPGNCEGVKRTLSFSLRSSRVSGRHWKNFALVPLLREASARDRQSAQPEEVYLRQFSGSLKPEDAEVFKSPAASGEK
Sequence of VR1/TRPV1 receptor (Q8NER1 whole entry): as above
T1 sequence (O35433 whole entry): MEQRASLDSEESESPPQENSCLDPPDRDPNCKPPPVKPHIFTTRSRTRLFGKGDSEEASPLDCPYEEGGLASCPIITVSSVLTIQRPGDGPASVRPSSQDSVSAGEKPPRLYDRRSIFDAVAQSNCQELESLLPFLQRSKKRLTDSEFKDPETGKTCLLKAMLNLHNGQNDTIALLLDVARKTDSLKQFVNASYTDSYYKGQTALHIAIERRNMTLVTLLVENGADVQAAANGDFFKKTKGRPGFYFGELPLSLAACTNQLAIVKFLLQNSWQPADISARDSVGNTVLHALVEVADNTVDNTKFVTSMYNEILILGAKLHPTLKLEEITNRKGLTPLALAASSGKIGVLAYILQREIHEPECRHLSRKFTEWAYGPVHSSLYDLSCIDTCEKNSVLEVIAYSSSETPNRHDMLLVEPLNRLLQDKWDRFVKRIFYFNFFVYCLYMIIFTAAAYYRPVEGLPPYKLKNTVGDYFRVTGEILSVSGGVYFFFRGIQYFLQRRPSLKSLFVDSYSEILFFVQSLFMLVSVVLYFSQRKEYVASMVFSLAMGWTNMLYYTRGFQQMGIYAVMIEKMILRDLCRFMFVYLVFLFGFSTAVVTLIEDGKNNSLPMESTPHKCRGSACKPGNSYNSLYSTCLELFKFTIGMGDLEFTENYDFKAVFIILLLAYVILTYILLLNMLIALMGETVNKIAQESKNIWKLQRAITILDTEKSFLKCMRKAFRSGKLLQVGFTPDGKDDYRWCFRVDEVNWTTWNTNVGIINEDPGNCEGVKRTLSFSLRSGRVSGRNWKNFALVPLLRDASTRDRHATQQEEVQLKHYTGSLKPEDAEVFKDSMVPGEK

O=C(Cc1ccc2c(c1)OCCO2)NCc1ccc(C(F)(F)F)nc1SC1CCCCC1 [Example 59, N-((2-(cyclohexylthio)-6-(trifluoromethyl)pyridin-3-yl)methyl)-2-(2,3-dihydrobenzo[b][1,4]dioxin-6-yl)acetamide]
Ki [1]: 5.7 nM | Ki [2]: 3.5 nM | IC50 (Human) following pH-stimulus [3]: ne

CC1CCN(c2nc(C(F)(F)F)ccc2CNC(=O)Cc2ccc3c(c2)OCCO3)CC1 [Example 58, 2-(2,3-dihydrobenzo[b][1,4]dioxin-6-yl)-N-((2-(4-methylpiperidin-1-yl)-6-(trifluoromethyl)pyridin-3-yl)methyl)acetamide]
Ki [1]: 60 nM | Ki [2]: 27.8 nM | IC50 (Human) following pH-stimulus [3]: ne

CC1CCN(c2nc(C(F)(F)F)ccc2CNC(=O)C(C)c2ccc3[nH]cnc3c2)CC1 (stereo not drawn) [Example 13, 2-(1H-benzoimidazol-5-yl)-N-(4-methyl-6′-trifluoromethyl-3,4,5,6-tetrahydro-2H-[1,2′]bipyridinyl-3′-ylmethyl)-propionamide]
Ki [2]: 7 nM | IC50 (Human) following pH-stimulus [3]: Ne | Inhibition Formaldehyde test [4]: 0.3 per os 25%

CC1CCN(c2nc(C(F)(F)F)ccc2CNC(=O)C(C)c2ccc3c(c2)OCO3)CC1 (stereo not drawn) [Example 60, 2-(benzo[d][1,3]dioxol-5-yl)-N-((2-(4-methylpiperidin-1-yl)-6-(trifluoromethyl)pyridin-3-yl)methyl)propanamide]
Ki [1]: 45.8 nM | Ki [2]: 26 nM | IC50 (Human) following pH-stimulus [3]: ne

CCCCOc1nc(C(C)(C)C)ccc1CNC(=O)C(C)c1ccc2[nH]cnc2c1 (stereo not drawn) [Example 23, 2-(1H-benzoimidazol-5-yl)-N-(2-butoxy-6-tert.-butyl-pyridin-3-ylmethyl)-propionamide]
Ki [2]: 15.3 nM | IC50 (Human) following pH-stimulus [3]: Ne | Inhibition Formaldehyde test [4]: 0.3 per os 13%
